From ChEMBL document CHEMBL1153595, “Structure-based design and parallel synthesis of N-benzyl isatin oximes as JNK3 MAP kinase inhibitors” (Bioorg Med Chem Lett, 2009)

How the values were obtained:
[1] = biological target: Mitogen-activated protein kinase 10 (Homo sapiens, UniProt P53779); experiment: Inhibition of JNK3 by spectrophotometric coupled enzyme assay
[2] = biological target: Mitogen-activated protein kinase 14 (Homo sapiens, UniProt Q16539); experiment: Inhibition of p38alpha by spectrophotometric coupled enzyme assay
Chain of Mitogen-activated protein kinase 14 (Q16539 whole entry): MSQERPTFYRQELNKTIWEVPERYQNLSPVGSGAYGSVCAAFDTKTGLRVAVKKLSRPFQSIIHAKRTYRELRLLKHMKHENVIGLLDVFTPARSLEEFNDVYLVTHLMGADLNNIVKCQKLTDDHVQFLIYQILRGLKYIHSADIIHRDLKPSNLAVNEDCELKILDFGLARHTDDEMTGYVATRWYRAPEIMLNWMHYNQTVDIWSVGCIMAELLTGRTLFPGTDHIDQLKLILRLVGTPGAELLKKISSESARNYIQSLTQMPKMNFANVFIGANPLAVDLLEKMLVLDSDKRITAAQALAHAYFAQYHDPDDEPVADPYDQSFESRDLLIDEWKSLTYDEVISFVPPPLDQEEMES

[3] = biological target: Mitogen-activated protein kinase 1 (Homo sapiens, UniProt P28482); experiment: Inhibition of ERK2 by spectrophotometric coupled enzyme assay
Chain of Mitogen-activated protein kinase 1 (P28482 whole entry): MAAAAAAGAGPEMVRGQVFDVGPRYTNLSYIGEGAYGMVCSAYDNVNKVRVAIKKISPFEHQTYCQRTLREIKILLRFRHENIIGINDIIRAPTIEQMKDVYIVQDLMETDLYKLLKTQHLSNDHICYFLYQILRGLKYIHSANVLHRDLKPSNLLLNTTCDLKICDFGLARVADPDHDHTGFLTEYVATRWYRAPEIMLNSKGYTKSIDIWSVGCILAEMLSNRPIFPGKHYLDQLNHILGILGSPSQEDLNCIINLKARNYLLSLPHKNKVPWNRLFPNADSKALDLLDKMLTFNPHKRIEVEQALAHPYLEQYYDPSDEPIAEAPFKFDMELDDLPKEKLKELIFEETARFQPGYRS

[4] = biological target: Tyrosine-protein kinase Lck (Homo sapiens, UniProt P06239); experiment: Inhibition of LCK
Chain of Tyrosine-protein kinase Lck (P06239 whole entry): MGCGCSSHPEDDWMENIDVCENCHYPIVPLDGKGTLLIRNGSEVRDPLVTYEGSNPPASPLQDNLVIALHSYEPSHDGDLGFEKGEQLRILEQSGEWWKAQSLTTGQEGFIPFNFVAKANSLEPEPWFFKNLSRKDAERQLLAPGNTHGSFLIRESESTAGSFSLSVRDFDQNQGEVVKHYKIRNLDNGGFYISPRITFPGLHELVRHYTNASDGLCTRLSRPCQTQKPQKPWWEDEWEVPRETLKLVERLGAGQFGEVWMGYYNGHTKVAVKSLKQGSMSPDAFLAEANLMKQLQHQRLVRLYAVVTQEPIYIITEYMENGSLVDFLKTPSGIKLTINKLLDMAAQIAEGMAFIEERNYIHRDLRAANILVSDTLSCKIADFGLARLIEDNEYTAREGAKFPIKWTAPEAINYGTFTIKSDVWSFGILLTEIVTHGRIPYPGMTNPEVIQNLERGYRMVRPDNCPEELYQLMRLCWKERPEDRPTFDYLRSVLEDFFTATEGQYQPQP

[5] = biological target: T1, Tyrosine-protein kinase JAK3 (Homo sapiens, UniProt P52333); experiment: Inhibition of JAK3
T1 sequence (P52333 whole entry): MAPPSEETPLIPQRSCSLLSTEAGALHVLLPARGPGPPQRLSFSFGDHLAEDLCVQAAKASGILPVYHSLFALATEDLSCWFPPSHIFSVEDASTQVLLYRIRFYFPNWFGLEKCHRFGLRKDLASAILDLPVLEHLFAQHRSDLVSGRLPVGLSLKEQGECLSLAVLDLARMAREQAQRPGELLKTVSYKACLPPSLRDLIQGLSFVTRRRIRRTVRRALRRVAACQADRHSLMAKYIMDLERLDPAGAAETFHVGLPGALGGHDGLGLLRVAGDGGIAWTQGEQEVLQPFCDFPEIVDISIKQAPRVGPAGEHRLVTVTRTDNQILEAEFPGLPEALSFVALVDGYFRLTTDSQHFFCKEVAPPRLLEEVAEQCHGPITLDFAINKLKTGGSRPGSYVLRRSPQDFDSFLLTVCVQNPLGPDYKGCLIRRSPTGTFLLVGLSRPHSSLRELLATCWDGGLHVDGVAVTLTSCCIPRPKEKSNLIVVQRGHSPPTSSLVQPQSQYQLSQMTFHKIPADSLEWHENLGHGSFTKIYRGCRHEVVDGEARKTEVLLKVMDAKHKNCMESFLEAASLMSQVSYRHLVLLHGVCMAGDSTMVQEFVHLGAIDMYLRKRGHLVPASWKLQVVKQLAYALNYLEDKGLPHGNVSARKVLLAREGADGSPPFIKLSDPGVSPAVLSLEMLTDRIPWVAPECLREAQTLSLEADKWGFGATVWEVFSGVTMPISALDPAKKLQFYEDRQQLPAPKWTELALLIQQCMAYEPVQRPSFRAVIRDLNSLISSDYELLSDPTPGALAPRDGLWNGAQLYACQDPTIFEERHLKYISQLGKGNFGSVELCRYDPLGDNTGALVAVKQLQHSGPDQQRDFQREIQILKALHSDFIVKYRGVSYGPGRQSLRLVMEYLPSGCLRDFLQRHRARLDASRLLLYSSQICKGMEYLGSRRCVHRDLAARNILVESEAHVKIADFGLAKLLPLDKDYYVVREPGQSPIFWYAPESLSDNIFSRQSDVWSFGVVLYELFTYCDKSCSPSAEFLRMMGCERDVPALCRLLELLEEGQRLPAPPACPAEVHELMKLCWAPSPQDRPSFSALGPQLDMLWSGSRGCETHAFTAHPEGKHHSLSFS

[6] = biological target: Mitogen-activated protein kinase 8 (Homo sapiens, UniProt P45983); experiment: Inhibition of JNK1
Chain of Mitogen-activated protein kinase 8 (P45983 whole entry): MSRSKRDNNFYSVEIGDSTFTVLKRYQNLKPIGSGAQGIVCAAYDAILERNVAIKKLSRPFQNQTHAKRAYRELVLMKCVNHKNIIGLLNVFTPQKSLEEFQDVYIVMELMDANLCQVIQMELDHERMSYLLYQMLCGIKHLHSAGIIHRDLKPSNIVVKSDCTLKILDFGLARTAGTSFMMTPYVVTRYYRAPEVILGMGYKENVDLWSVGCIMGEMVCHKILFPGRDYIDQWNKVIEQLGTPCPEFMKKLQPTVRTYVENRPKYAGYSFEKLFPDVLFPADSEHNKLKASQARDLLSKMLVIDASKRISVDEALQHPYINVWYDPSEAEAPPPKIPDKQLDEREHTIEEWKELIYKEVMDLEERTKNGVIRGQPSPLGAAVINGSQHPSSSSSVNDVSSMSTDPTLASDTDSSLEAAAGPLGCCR

[7] = biological target: Rho-associated protein kinase 1 (Homo sapiens, UniProt Q13464); experiment: Inhibition of ROCK1
[8] = biological target: RAC-gamma serine/threonine-protein kinase (Homo sapiens, UniProt Q9Y243); experiment: Inhibition of AKT3
[9] = biological target: Mitogen-activated protein kinase 9 (Homo sapiens, UniProt P45984); experiment: Inhibition of JNK2
Chain of Mitogen-activated protein kinase 9 (P45984 whole entry): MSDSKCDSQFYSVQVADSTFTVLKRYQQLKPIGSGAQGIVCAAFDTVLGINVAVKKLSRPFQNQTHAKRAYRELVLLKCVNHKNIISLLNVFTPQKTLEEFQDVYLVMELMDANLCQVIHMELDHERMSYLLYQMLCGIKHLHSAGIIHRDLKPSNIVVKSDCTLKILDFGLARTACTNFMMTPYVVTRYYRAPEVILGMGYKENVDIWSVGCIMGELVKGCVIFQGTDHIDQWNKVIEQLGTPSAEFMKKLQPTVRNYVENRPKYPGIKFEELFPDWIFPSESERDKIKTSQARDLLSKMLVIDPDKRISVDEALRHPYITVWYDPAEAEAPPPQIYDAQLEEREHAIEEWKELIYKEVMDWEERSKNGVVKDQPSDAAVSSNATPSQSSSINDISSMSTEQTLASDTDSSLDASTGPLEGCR

[10] = biological target: T2, Receptor-type tyrosine-protein kinase FLT3 (Homo sapiens, UniProt P36888); experiment: Inhibition of FLT3
T2 sequence (P36888 whole entry): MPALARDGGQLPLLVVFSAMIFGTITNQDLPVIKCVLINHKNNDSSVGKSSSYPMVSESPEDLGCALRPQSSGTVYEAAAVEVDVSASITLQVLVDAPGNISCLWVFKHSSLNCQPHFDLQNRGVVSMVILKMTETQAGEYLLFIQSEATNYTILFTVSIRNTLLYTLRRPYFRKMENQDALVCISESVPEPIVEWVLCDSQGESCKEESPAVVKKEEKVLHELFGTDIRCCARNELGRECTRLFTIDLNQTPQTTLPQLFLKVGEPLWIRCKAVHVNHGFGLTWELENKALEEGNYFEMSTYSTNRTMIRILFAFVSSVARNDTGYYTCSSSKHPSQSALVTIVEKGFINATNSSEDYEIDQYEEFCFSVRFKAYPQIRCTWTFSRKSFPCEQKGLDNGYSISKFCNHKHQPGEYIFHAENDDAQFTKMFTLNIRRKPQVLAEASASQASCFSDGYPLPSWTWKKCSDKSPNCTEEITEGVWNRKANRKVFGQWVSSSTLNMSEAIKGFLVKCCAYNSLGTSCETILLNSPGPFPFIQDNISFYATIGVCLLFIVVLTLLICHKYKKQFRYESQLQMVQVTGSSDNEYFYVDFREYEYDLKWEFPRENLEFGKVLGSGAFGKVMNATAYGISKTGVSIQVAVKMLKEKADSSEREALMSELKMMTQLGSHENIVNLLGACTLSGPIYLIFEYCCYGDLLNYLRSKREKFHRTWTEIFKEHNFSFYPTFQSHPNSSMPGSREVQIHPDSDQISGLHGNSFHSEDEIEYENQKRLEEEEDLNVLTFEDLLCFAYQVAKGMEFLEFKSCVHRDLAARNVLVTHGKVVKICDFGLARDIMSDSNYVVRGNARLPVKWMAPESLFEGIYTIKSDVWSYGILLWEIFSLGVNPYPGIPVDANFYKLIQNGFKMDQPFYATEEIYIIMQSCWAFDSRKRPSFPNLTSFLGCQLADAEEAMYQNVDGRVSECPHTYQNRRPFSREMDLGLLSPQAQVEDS

[11] = biological target: Glycogen synthase kinase-3 beta (Homo sapiens, UniProt P49841); experiment: Inhibition of GSK3-beta
Chain of Glycogen synthase kinase-3 beta (P49841 whole entry): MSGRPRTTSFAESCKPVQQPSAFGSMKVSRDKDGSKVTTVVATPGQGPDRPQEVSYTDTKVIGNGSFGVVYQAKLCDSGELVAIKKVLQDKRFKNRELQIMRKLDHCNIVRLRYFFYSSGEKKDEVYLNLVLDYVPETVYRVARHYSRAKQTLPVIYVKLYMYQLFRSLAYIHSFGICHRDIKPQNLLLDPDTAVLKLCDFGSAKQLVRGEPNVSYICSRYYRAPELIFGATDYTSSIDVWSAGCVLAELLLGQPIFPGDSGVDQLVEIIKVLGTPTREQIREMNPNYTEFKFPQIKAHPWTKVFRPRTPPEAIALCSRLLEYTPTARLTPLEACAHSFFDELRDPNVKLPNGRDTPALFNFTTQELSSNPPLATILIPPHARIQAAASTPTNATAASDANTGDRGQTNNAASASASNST

[12] = biological target: Cyclin-dependent kinase 2 (Homo sapiens, UniProt P24941); experiment: Inhibition of CDK2
Angiopoietin-1 receptor = Angiopoietin-1 receptor (Homo sapiens, UniProt Q02763); experiment: Inhibition of Tie2
Chain of Angiopoietin-1 receptor (Q02763 whole entry): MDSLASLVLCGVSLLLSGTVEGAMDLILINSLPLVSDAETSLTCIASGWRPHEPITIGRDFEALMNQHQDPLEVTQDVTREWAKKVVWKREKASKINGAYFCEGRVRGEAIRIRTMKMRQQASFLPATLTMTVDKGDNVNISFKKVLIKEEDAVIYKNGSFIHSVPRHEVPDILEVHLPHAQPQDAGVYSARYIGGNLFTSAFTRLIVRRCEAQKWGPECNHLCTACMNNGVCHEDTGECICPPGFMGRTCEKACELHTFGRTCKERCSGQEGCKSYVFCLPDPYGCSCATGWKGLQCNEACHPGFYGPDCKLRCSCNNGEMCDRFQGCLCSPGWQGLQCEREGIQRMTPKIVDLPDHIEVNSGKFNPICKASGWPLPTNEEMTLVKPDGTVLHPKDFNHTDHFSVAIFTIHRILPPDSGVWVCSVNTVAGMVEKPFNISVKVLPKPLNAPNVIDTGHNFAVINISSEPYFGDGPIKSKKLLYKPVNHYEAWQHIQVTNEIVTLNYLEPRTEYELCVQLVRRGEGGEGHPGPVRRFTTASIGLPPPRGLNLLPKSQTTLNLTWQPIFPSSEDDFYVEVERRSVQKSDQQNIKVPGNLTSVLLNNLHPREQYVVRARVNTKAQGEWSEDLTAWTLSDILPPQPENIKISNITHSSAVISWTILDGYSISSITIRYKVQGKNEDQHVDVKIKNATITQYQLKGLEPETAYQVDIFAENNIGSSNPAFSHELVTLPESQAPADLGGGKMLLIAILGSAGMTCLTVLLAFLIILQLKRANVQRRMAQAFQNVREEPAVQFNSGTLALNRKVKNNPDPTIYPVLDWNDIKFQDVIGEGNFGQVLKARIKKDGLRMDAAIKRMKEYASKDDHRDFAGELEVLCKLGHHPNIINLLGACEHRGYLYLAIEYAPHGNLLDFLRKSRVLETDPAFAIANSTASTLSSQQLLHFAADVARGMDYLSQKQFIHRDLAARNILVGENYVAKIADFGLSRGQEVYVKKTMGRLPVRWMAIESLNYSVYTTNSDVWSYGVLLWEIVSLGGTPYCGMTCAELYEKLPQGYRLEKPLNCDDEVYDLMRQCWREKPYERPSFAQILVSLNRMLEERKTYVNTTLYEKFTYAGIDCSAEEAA

[13] = biological target: Proto-oncogene tyrosine-protein kinase Src (Homo sapiens, UniProt P12931); experiment: Inhibition of Src
Chain of Proto-oncogene tyrosine-protein kinase Src (P12931 2-536 limits assumed): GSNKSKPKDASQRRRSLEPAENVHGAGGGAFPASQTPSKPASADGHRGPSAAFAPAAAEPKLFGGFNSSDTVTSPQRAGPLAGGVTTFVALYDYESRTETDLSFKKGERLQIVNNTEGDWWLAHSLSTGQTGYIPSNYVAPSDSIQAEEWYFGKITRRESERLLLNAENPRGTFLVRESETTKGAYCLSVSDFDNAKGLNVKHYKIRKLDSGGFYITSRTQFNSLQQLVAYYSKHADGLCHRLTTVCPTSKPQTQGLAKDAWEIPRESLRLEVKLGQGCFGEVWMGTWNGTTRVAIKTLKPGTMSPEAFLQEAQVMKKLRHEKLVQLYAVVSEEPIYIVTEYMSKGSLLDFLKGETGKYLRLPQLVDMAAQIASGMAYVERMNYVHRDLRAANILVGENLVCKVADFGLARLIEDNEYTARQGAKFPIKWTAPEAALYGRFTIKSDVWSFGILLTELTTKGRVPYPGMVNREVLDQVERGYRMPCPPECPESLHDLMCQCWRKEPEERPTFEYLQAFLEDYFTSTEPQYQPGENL

Chain of Mitogen-activated protein kinase 10 (P53779 whole entry): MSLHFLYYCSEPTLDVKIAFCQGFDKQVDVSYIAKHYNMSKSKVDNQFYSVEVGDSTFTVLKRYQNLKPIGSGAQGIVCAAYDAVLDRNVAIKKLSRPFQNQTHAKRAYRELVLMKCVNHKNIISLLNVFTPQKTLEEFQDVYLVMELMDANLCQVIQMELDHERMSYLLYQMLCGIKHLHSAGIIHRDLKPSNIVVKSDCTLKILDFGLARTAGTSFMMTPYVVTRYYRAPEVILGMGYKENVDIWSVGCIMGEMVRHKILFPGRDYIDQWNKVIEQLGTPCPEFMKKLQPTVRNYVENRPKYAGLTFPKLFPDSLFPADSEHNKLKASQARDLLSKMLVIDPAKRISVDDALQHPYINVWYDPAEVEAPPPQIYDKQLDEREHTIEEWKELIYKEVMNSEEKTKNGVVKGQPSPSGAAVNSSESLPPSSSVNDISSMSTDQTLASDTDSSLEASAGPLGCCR

Row | SMILES | Ki [1] | further results
1 | O=C1/C(=N\O)c2cc(OC(F)(F)F)ccc2N1Cc1cc(F)cc2c1OCOC2 | 1.7 µM | –
2 | O=C1/C(=N\O)c2ccccc2N1Cc1ccccc1[N+](=O)[O-] | > 10 µM | –
3 | O=C1/C(=N\O)c2ccccc2N1Cc1cccc([N+](=O)[O-])c1 | 0.94 µM | –
4 | O=C(O)c1ccc2c(c1)N(Cc1cc(F)cc3c1OCOC3)C(=O)/C2=N\O | 0.3 µM | –
5 | O=C1/C(=N\O)c2c(-c3ccc(F)cc3)cccc2N1Cc1cc(F)cc2c1OCOC2 | 13 µM | Ki [2]: 3.4 µM; Ki [3]: > 15 µM
6 | O=C1/C(=N\O)c2c(-c3ccccc3)cccc2N1Cc1cc(F)cc2c1OCOC2 | – | Ki [2]: 9.5 µM; Ki [3]: 25 µM
7 | COc1ccc(CN2C(=O)/C(=N\O)c3cc(F)ccc32)cc1 | 1.6 µM | –
8 | Cc1ccc2c(c1)/C(=N/O)C(=O)N2Cc1ccccc1 | > 10 µM | –
9 | CS(=O)(=O)Nc1ccc2c(c1)N(Cc1cc(F)cc3c1OCOC3)C(=O)/C2=N\O | 0.46 µM | –
10 | COc1cc(CN2C(=O)/C(=N\O)c3cc(F)ccc32)cc(OC)c1 | 0.79 µM | –
11 | COC(=O)c1ccc2c(c1)N(Cc1cc(F)cc3c1OCOC3)C(=O)/C2=N\O | 0.16 µM | –
12 | O=C1/C(=N\O)c2c(CCc3ccccc3)cccc2N1Cc1cc(F)cc2c1OCOC2 | > 15 µM | Ki [2]: 0.03 µM; Ki [3]: > 15 µM
13 | O=C1/C(=N\O)c2cc(Cl)ccc2N1Cc1cc(F)cc2c1OCOC2 | 0.74 µM | –
14 | COc1cc(CN2C(=O)/C(=N\O)c3ccccc32)cc(OC)c1 | 0.99 µM | –
15 | O=C1/C(=N\O)c2ccc(C(F)(F)F)cc2N1Cc1cc(F)cc2c1OCOC2 | 0.33 µM | –
16 | O=C1/C(=N\O)c2c(-c3cccc(F)c3)cccc2N1Cc1cc(F)cc2c1OCOC2 | 5.8 µM | Ki [2]: 7.4 µM; Ki [3]: 23 µM
17 | Cc1ccc2c(c1)/C(=N/O)C(=O)N2Cc1cccc(C(F)(F)F)c1 | 2.7 µM | –
18 | O=C1/C(=N\O)c2ccc(Br)cc2N1Cc1cc(F)cc2c1OCOC2 | 0.1 µM | –
19 | O=Nc1c(O)n(Cc2ccc(Cl)cc2)c2ccccc12 | 6.7 µM | –
20 | Cc1ccc2c(c1)N(Cc1cc(F)cc3c1OCOC3)C(=O)/C2=N\O | 0.09 µM | Ki [2]: > 20 µM; Ki [3]: > 50 µM; Ki [4]: > 30 µM; Ki [5]: > 30 µM; Ki [6]: 0.45 µM; Ki [7]: > 30 µM; Ki [8]: > 30 µM; Ki [9]: 0.07 µM; Ki [10]: 4 µM; Ki [11]: > 30 µM; Ki [12]: > 30 µM; Ki (Angiopoietin-1 receptor): > 10 µM; Ki [13]: > 30 µM
21 | Nc1ccc2c(c1)N(Cc1cc(F)cc3c1OCOC3)C(=O)/C2=N\O | 0.4 µM | –
22 | C=Cc1cccc2c1/C(=N/O)C(=O)N2Cc1cc(F)cc2c1OCOC2 | 0.14 µM | Ki [2]: 8 µM; Ki [3]: > 15 µM
23 | N#Cc1cccc2c1/C(=N/O)C(=O)N2Cc1cc(F)cc2c1OCOC2 | 2 µM | –
24 | O=Nc1c(O)n(Cc2cccc(Cl)c2)c2ccccc12 | 5 µM | –

Row | SMILES | Ki [1] | further results
25 | O=C1/C(=N\O)c2cc(F)ccc2N1Cc1ccccc1 | > 10 µM | –
26 | O=C1/C(=N\O)c2cc(Cl)ccc2N1Cc1ccccc1 | 12 µM | –
27 | CCNC(=O)c1ccc2c(c1)N(Cc1cc(F)cc3c1OCOC3)C(=O)/C2=N\O | 1 µM | –
28 | Cc1cccc2c1/C(=N/O)C(=O)N2Cc1cc(F)cc2c1OCOC2 | 0.7 µM | Ki [3]: > 15 µM
29 | O=C1/C(=N\O)c2ccccc2N1Cc1cccc(F)c1 | 8.1 µM | –
30 | Cc1cccc(CN2C(=O)/C(=N\O)c3ccccc32)c1 | 6.8 µM | –
31 | O=C1/C(=N\O)c2c(/C=C/c3ccccc3)cccc2N1Cc1cc(F)cc2c1OCOC2 | – | Ki [2]: 0.23 µM
32 | O=Nc1c(O)n(Cc2cccc(C(F)(F)F)c2)c2ccccc12 | 5.2 µM | –
33 | O=C1/C(=N\O)c2ccc(-c3ccccc3)cc2N1Cc1cc(F)cc2c1OCOC2 | 0.2 µM | –
34 | COC(=O)c1cccc2c1/C(=N/O)C(=O)N2Cc1cc(F)cc2c1OCOC2 | 30 µM | Ki [3]: > 15 µM
35 | CCC(=O)Nc1ccc2c(c1)N(Cc1cc(F)cc3c1OCOC3)C(=O)/C2=N\O | 0.61 µM | –
36 | O=C1/C(=N\O)c2cc(Br)ccc2N1Cc1ccccc1 | 2.5 µM | –
37 | O=C1/C(=N\O)c2ccccc2N1Cc1cc(F)cc2c1OCOC2 | 0.51 µM | –
38 | Cc1ccc(Cn2c(O)c(N=O)c3ccccc32)cc1 | 9.9 µM | –
39 | O=C1/C(=N\O)c2ccccc2N1Cc1ccc(F)cc1 | 8.3 µM | –
40 | COc1ccc2c(c1)N(Cc1cc(F)cc3c1OCOC3)C(=O)/C2=N\O | 0.24 µM | –
41 | Cc1ccc2c(c1)/C(=N/O)C(=O)N2c1ccccc1 | > 30 µM | –
42 | O=C1/C(=N\O)c2ccc([N+](=O)[O-])cc2N1Cc1cc(F)cc2c1OCOC2 | 0.64 µM | –
43 | O=C1/C(=N\O)c2ccccc2N1Cc1ccccc1F | 8.5 µM | –
44 | O=C1/C(=N\O)c2c(Br)cccc2N1Cc1cc(F)cc2c1OCOC2 | 0.185 µM | Ki [2]: > 10 µM; Ki [3]: > 15 µM
45 | O=C1/C(=N\O)c2ccccc2N1Cc1ccc([N+](=O)[O-])cc1 | 7 µM | –
46 | O=Nc1c(O)n(Cc2ccccc2)c2ccccc12 | > 10 µM | –
47 | CCc1cccc2c1/C(=N/O)C(=O)N2Cc1cc(F)cc2c1OCOC2 | 1.4 µM | Ki [3]: > 15 µM
48 | Cc1cccc(CN2C(=O)/C(=N\O)c3cc(C)ccc32)c1 | > 10 µM | –
